In BindingDB's records for patent US20230322706 (Lg Chem, 2023):

Molecular target: T1, Diacylglycerol O-acyltransferase 2 (Homo sapiens, UniProt Q96PD7)
T1 sequence (Q96PD7 whole entry): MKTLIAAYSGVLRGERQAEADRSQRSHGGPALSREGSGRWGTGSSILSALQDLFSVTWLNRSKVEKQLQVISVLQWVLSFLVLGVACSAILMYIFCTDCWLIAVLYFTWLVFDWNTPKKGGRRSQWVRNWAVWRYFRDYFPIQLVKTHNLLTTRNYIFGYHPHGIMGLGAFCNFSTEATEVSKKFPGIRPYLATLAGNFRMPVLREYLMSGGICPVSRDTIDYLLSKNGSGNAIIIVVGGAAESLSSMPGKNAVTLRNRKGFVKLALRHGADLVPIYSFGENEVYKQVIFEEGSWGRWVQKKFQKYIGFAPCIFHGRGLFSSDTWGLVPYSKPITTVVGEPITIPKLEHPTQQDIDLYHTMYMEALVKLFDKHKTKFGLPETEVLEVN
Assay: Measurement of Inhibitory Effect Against DGAT2 Enzyme Activity
Procedure: 1. […] In order to prepare the pBacPAK9-DGAT2, which is DGAT2 expression vector, the human DGAT2 gene amplified by polymerase chain reaction (PCR) was cloned into the EcoR1 and Xho1 sites of the pBacPAK9 (clonctech) vector. The nucleotide sequence of the primers used in PCR was the forward primer 5′ […] […] and the reverse primer 5′ […]. The composition of the reaction solution was to contain 50 ng of cDNA clone (OriGene), 200 μM of dATP, dCTP, dTTP, dGTP, 200 nM of each primer, 1 unit of Tag DNA Polymerase (Toyobo), 1x PCR buffer, and the final volume was adjusted to 20 μl. The reaction conditions were denatured at 95° C. for 5 minutes, followed by 30 times of 94° C. for 20 seconds, 60° C. for 20 seconds, and 72° C. for 90 seconds, followed by further reaction at 72° C. for 7 minutes. 2. […] Recombinant human DGAT2 protein was expressed in Sf-21 cells, which are insect cells, by using the BacPack baculovirus expression system (Clontech). The brief manufacturing process is as follows. First, the pBacPAK9-DGAT2 expression vector was transfected with BacPAK6 virus DNA (Bsu36I digest) into sf21 cells using Bacfectin to prepare a recombinant DGAT2 expressing baculovirus. The thus prepared baculovirus was infected with Sf-21 cells at 10 MOI (multiplicity of infection), and after 72 hours, infected insect cells were collected and membrane proteins were isolated. […] Protein concentration was quantified by using the BCA Protein Assay Kit (Thermo Scientific). […] The next day, the amplified scintillation signal (cpm) in Topcounter (Packard) was measured to measure the degree of production of [14C]-labeled triacyl glycerol (TG) as a reaction product. The measured value when the compound was not treated was used as a positive control, and the measured value of the compound treated group was calculated as a relative % to measure the inhibition effect of the compound on TG production.

Row | SMILES | IC50 [nM]
1 | CCOc1ccccc1Oc1cccc(-c2cncc(NC(=O)/C=C/c3ccc(C(C)(C)C(=O)O)cc3)n2)c1 [US20230322706, Example 17] | 240
2 | CCOC(=O)C(F)(F)c1ccc(CC(=O)Nc2cncc(-c3cncc(Oc4ccccc4OCC)c3)n2)cc1 [US20230322706, Example 6] | 120
3 | CCOc1ccccc1Oc1cccc(-c2cncc(NC(=O)Cc3ccc(C(F)(F)C(=O)O)cc3)n2)c1 [US20230322706, Example 14] | 3100
